Experimental data taken from patent publication US10526580B2, “Differentiated cell population of endothelial cells derived from human pluripotent stem cells, composition, system, kit and uses thereof” (BIOCANT-ASSOCIAÇÃO DE TRANSFERÊNCIA DE TECNOLOGIA, priority 2012, dated 2020).
Counter-ions that a name gives are not always drawn.

System: hESC-derived ECs versus ACL cells
Assay: High-throughput screening of LOPAC library, PrestoBlue cell viability, hESC-derived ECs versus ACL cells
Format: cell-based, human
Details: LOPAC screen, 4.5 μM, 4 days of incubation, PrestoBlue assay
Protocol: High-throughput screening (HTS). HUAECS (Lonza) and hESC-derived ECs were cultured in EGM-2 medium while human anterior cruciate ligament cells (ACL cells) were cultured in Dulbecco's modified Eagle's medium (DMEM; PAA) supplemented with 10% FBS, 0.2 mM ascorbic acid 2-phosphate magnesium salt (Sigma Aldrich), […] streptomycin and 100 U/mL penicillin (Life Technologies). ACL cells were isolated from patients that have signed an informed consent form, in compliance with the Dutch legislation. The ethical committee of Medisch Spectrum Twente Hospital approved the collection.
The LOPAC library (Sigma-Aldrich) was used to screen embryonic endothelial-specific cytotoxic compounds. The compounds were solubilized in DMSO. The final compound concentration used in the screen was 4.5 μM in a final volume of 200 μL per well (96-well plate). HUAECs, hESC-derived EC and ACL cells were seeded at 16,000 cells/well (HUAECs and hESC-derived ECs) and 5,000 cells/well (ACL cells) and allowed to reach near confluence (approximately two days). After two days, medium was exchanged and test compounds and controls were added to the 96-well plates (all wells contained 0.25% (v/v) DMSO). After 4 days of incubation, cell viability was assessed using a PrestoBlue (Invitrogen) assay. This assay is based on a resazurin-based solution that indicates the reducing power of living cells and therefore measures indirectly their number. For each measurement, cell medium was removed and the PrestoBlue solution (10%) was added for 3 h at 37° C. upon which the absorbance was measured at 560-590 nm.
Disruption of vascular development has been directly correlated with prenatal loss, malformations and neurodevelopmental problems^41-44. […] The library was screened at a single dosage of 4.5 μM in a volume of 200 μL per well of EGM-2 medium, containing 0.25% DMSO (v/v). […] Six compounds (danazol, chlorpromazine hydrochloride, ellipticine, 3′,4′-dichlorobenzamil, fluphenazine dihydrochloride and 7-cyclopentyl-5-(4-phenoxy)phenyl-7H-pyrrolo[2,3-d]pyrimidin-4-ylamine) affected cell viability in both cells by a difference of 20% (FIG. 4B). The six compounds belong to different classes: cell cycle, ion pumps, dopamine pathway, phosphorylation and hormone signaling. The compounds selected from the primary screen were then tested against hESC-derived ECs and HUAECs at eight different concentrations to obtain a dose-response curve (FIG. 4C and FIG. 14).

| Structure (SMILES) | Differences (%) in cell viability (hESC-Derived ECs versus ACL cells) [%] |
| --- | --- |
| COc1ccc(CCN(C)CCCC(C#N)(c2ccc(OC)c(OC)c2)C(C)C)cc1OC.Cl (racemic) [(±)-Verapamil hydrochloride] | 85.1 |
| CCCCCCCCCCCCCCCCCC(=O)NCC(COP(=O)([O-])OCC[N+](C)(C)C)OCC (racemic) [rac-2-Ethoxy-3-octadecanamido-1-propylphosphocholine] | 56.2 |
| Cn1c(=O)c2[nH]c(-c3ccccc3)nc2n(C)c1=O [1,3-Dimethyl-8-phenylxanthine] | 68.8 |
| COc1cc2c(cc1O)CC[C@@H]1[C@@H]2CC[C@]2(C)[C@@H](O)CC[C@@H]12 [2-methoxyestradiol] | 84.3 |
| O=c1[nH]c(=O)n([C@H]2C[C@H](O)[C@@H](CO)O2)cc1Br [5-Bromo-2′-deoxyuridine] | 53.9 |
| Nc1ncn([C@@H]2O[C@H](CO)[C@@H](O)[C@H]2O)c(=O)n1 [5-azacytidine] | 56.1 |
| C[C@H]1O[C@@H](n2cc(F)c(=O)[nH]c2=O)[C@H](O)[C@@H]1O [5-fluoro-5′-deoxyuridine] | 60.8 |
| Oc1cc(-c2ccccc2)nc2nc(Cl)ccc12 [7-Chloro-4-hydroxy-2-phenyl-1,8-naphthyridine] | 59.1 |
| CCN(CC)C(C)C(=O)N1c2ccccc2Sc2ccccc21.Cl (stereo not drawn) [10-(alpha-Diethylaminopropionyl)-phenothiazine hydrochloride] | 56.8 |
| CS(=O)(=O)O.Cc1c(C(=O)c2cccc3ccccc23)c2cccc3c2n1[C@H](CN1CCOCC1)CO3 [(R)-(+)-WIN 55,212-2 mesylate] | 97.7 |
| CC[C@@]1(O)C(=O)OCc2c1cc1n(c2=O)Cc2cc3ccccc3nc2-1 [(S)-(+)-Camptothecin] | 96.3 |
| CC1=C(C)C(=O)C(CCCCC#CCCCC#CCO)=C(C)C1=O [AA-861] | 53.3 |
| CC(/C=C/c1cccc(Oc2ccc(F)cc2)c1)N(O)C(N)=O (stereo not drawn) [BWB70C] | 55.3 |
| C[C@H]1CCC/C=C/[C@@H]2C[C@H](O)C[C@H]2[C@H](O)/C=C/C(=O)O1 [Brefeldin A] | 95.5 |
| C=CCc1ccccc1OCC(O)CNC1(C)CCC(C(C)(C)NC(=O)CBr)CC1 (stereo not drawn) [Bromoacetyl alprenolol menthane] | 93.4 |
| CNc1ccc2oc(C[C@H]3O[C@@]4(CC[C@H]3C)O[C@H]([C@H](C)C(=O)c3ccc[nH]3)[C@H](C)C[C@H]4C)nc2c1C(=O)O [Calcimycin] | 96.2 |
| Clc1ccc(C(c2ccc(Cl)cc2)n2cc[n+](CC(OCc3ccc(Cl)cc3Cl)c3ccc(Cl)cc3Cl)c2)cc1 (stereo not drawn) [Calmidazolium chloride] | 96.1 |
| CC1(C(=O)O)C2CCC(O2)C1(C)C(=O)O (stereo not drawn) [Cantharidic Acid] | 93.8 |
| C[C@@]12C(=O)OC(=O)[C@]1(C)[C@H]1CC[C@@H]2O1 [Cantharidin] | 94.3 |
| CN(C)CC/C=C1/c2ccccc2Sc2ccc(Cl)cc21 [Chlorprothixene hydrochloride] | 58.1 |
| COc1cc2c(c(OC)c1OC)-c1ccc(OC)c(=O)cc1[C@@H](NC(C)=O)CC2 [Colchicine] | 67.4 |
| CCn1c(=O)[nH]c2cc(Cl)c(Cl)cc21 [DCEBIO] | 73.2 |
| Cc1cc(N)c2ccccc2[n+]1CCCCCCCCCCCCCC[n+]1c(C)cc(N)c2ccccc21 [Dequalinium analog, C-14 linker] | 96.6 |
| Cc1cc(N)c2ccccc2[n+]1CCCCCCCCCC[n+]1c(C)cc(N)c2ccccc21 [Dequalinium dichloride] | 60.6 |
